Assay results reported in patent US20240041976A1, “COMPOSITION AND USE” (priority 2020, published 2024).
Like-named read-outs stand apart in the source and are kept apart here. No end group written: not given here.

Tests used:
MRSA 43484 = experiment: AAMP assay and checkerboard synergy; type: cell-based, Staphylococcus aureus; details: for MIC: Staphylococcus aureus, 24 h, read-out: MIC, single antimicrobial
Description: (§1) Antimicrobial activity was measured using the AAMP assay (Wiegand et al., 2008, Nat. Protoc., Vol. 3(2), p 163-175).
(§2) Synergy testing was done with a microtiter plate checkerboard assay as previously described (Orhan et al., 2005, J. Clin. Microbiol., Vol. 43(1), p 140-143). Briefly, equal amounts of antimicrobial A were applied on microtiter plate 1 in wells A1-H1 and then diluted two-fold to wells 2-12. Similarly, equal amounts of antimicrobial B were applied on microtiter plate 2 in wells A1-A12 and diluted two-fold in wells B-H. Volumes of 50 μl of antimicrobial A from each well of microtiter plate 1 were transferred into microtiter plate 3, except for wells H1-H12. Similarly, the same volumes were transferred from microtiter plate 2 into plate 3, except for wells A1-A8. A 100 μl volume of 25 times diluted ON bacterial culture of MRSA was transferred into each well of plate 3. A 50 μl volume of pure broth was added into each well in lines H1-H12 and A1-A8 which were used to estimate MIC values of pure substances (blank).
(§3) Three-component synergy was assessed by mixing the three components (100 μg of PenG, 50 μg of GarKS and 2.5 μg of MP1) into one well of a microtiter plate, compared with activity of individual antimicrobials on the same plate. The fractional inhibition concentration (FIC) which was used to define synergy was calculated as set forth in Example 1.

MRSA ATCC 33591-lux = experiment: AAMP assay and checkerboard synergy; type: cell-based, Staphylococcus aureus; details: for MIC: Staphylococcus aureus, 24 h, read-out: MIC, single antimicrobial
Description: as §1, §2, §3

MRSA USA-300 = experiment: AAMP assay and checkerboard synergy; type: cell-based, Staphylococcus aureus; details: for MIC: Staphylococcus aureus, 24 h, read-out: MIC, single antimicrobial
Description: as §1, §2, §3

[1] = tested on: three MRSA strains (ATCC33591-lux, USA-300 and MRSA 43484); experiment: AAMP assay and checkerboard synergy, summary; type: cell-based, Staphylococcus aureus; details: for MIC: Staphylococcus aureus, 24 h; for synergy with GarKS: checkerboard assay
Description: as §2, with “Briefly,” for “Synergy testing was done with a microtiter plate checkerboard assay as previously described (Orhan et al., 2005, J. Clin. Microbiol., Vol. 43(1), p 140-143). Briefly,”, “A 100 μl volume of 25 times diluted ON bacterial culture of MRSA was transferred into each well of plate 3.” left out
Three-component synergy was assessed by mixing the three components (100 μg of PenG, 50 μg of GarKS and 2.5 μg of MP1) into one well of a microtiter plate, compared with activity of individual antimicrobials on the same plate.

S. aureus LMG3026 = experiment: AAMP assay (MIC), single components and formulation mixture; type: cell-based, Staphylococcus aureus; details: Staphylococcus aureus, LMG3026, 24 h; read-out: MIC, single component
Description: as §1, §3

S. aureus LMG3242 = experiment: as above; type: cell-based, Staphylococcus aureus
Description: as §1, §3

S. aureus LMG3255 = experiment: as above; type: cell-based, Staphylococcus aureus
Description: as §1, §3

S. aureus LMG3258 = experiment: as above; type: cell-based, Staphylococcus aureus; details: Staphylococcus aureus, LMG3258, 24 h; read-out: MIC, single component
Description: as §1, §3

S. aureus LMG3263 = experiment: as above; type: cell-based, Staphylococcus aureus
Description: as §1, §3

S. aureus LMG3264 = experiment: as above; type: cell-based, Staphylococcus aureus
Description: as §1, §3

S. aureus LMG3265 = experiment: as above; type: cell-based, Staphylococcus aureus; details: Staphylococcus aureus, LMG3265, 24 h; read-out: MIC, single component
Description: as §1, §3

S. aureus LMG3266 = experiment: as above; type: cell-based, Staphylococcus aureus
Description: as §1, §3

S. aureus LMG3271 = experiment: as above; type: cell-based, Staphylococcus aureus; details: Staphylococcus aureus, LMG3271, 24 h; read-out: MIC, single component
Description: as §1, §3

S. aureus LMG3307 = experiment: as above; type: cell-based, Staphylococcus aureus; details: Staphylococcus aureus, LMG3307, 24 h; read-out: MIC, single component
Description: as §1, §3

S. aureus LMG3314 = experiment: as above; type: cell-based, Staphylococcus aureus; details: Staphylococcus aureus, LMG3314, 24 h; read-out: MIC, single component
Description: as §1, §3

S. aureus LMG3322 = experiment: as above; type: cell-based, Staphylococcus aureus; details: Staphylococcus aureus, LMG3322, 24 h; read-out: MIC, single component
Description: as §1, §3

S. aureus LMG3328 = experiment: as above; type: cell-based, Staphylococcus aureus; details: Staphylococcus aureus, LMG3328, 24 h; read-out: MIC, single component
Description: as §1, §3

MRSA ATCC 33591 = experiment: microbe, parasite or virus in culture; type: cell-based, Staphylococcus aureus; details: for MIC: Staphylococcus aureus, 24 h, read-out: MIC, single antimicrobial
Description: as §1, §2
(§4) Antimicrobial activity was measured using the AAMP assay as described in Example 2.
(§5) Synergy testing was performed as in Example 2.

[2] = tested on: S. pseudintermedius MRSP 45; experiment: microbe, parasite or virus in culture; type: cell-based, Staphylococcus pseudintermedius; details: Staphylococcus pseudintermedius, read-out: MIC, single component
Description: as §1, §2, §4, §5

[3] = tested on: Methicillin-Resistant Staphylococcus aureus; type: in vivo, mice; details: repeat on larger groups
Description: The experiment was performed essentially as set out in Example 2, except that the following regimes as described below, were used.
50-70 μl of cream was applied per wound.
Treatment was daily for 4 days.
The rifampicin/MP1 experiment was repeated on a larger group of mice in each category (8 mice for each of rifampicin, MP1, rifampicin+MP1, 8 mice with APO base cream 30% as used for rifampicin and MP1, 7 mice untreated). Seven mice were also treated with fucidin cream (2% fusidic acid in a cream base) as a positive control.

E. faecium LMGT 3104 = experiment: microbe, parasite or virus in culture; type: cell-based, Enterococcus faecium
Description: as §1, §2, §4, §5

[4] = Staphylococcus aureus, LMG3242, 24 h; read-out: MIC, single component
[5] = Staphylococcus aureus, LMG3255, 24 h; read-out: MIC, single component
[6] = Staphylococcus aureus, LMG3263, 24 h; read-out: MIC, single component
[7] = Staphylococcus aureus, LMG3264, 24 h; read-out: MIC, single component
[8] = Staphylococcus aureus, LMG3266, 24 h; read-out: MIC, single component

Row | Compound | MIC of the antimicrobial in comb. with GarKS (MRSA 43484; MRSA 43484) | MIC (MRSA 43484; MRSA 43484) | MIC of the antimicrobial in comb. with GarKS (MRSA ATCC 33591-lux; MRSA ATCC 33591-lux) | MIC of the antimicrobial in comb. with GarKS (MRSA USA-300; MRSA USA-300) | MIC (MRSA USA-300; MRSA) | MIC of the antimicrobial in comb. with GarKS ([1]; All three strains) | synergy with GarKS [1] | MIC (S. aureus LMG3026) | MIC (S. aureus LMG3242; [4]) | MIC (S. aureus LMG3255; [5]) | MIC (S. aureus LMG3258) | MIC (S. aureus LMG3263; [6]) | MIC (S. aureus LMG3264; [7]) | MIC (S. aureus LMG3265) | MIC (S. aureus LMG3266; [8]) | MIC (S. aureus LMG3271) | MIC (S. aureus LMG3307) | MIC (S. aureus LMG3314) | MIC (S. aureus LMG3322) | MIC (S. aureus LMG3328) | further results
1 | O=C(N[C@H](CO)[C@H](O)c1ccc([N+](=O)[O-])cc1)C(Cl)Cl [Cam, Chloramphenicol] | 64 µg/mL | 16 µg/mL | 32/32 μg/ml | 64 µg/mL | 125 µg/mL | 32 to 64 µg/mL | no synergy or only additive effects | 8 µg/mL | 8 µg/mL | 16 µg/mL | 16 µg/mL | 32 µg/mL | 16 µg/mL | 32 µg/mL | 32 µg/mL | 16 µg/mL | 8 µg/mL | 8 µg/mL | 8 µg/mL | 8 µg/mL | MIC (MRSA ATCC 33591-lux): 125 µg/mL; MIC ([1]; read-out: MIC, single antimicrobial, All three strains): 16 to 125 µg/mL; MIC of MP1 in comb. with the labelled antimicrobial (MRSA ATCC 33591): 0.08 µg/mL; MIC of the labelled antimicrobial in comb. with MP1 (MRSA ATCC 33591): 8 µg/mL; MIC (MRSA ATCC 33591): 62 µg/mL; MIC ([2]; MRSP45, MRSP 45, 24 h, Table 8): 62 µg/mL
2 | NC[C@H]1O[C@H](O[C@H]2[C@H](O)[C@@H](O[C@H]3O[C@H](CO)[C@@H](O)[C@H](N)[C@H]3O)[C@H](N)C[C@@H]2N)[C@H](O)[C@@H](O)[C@@H]1O [Kan, Kanamycin] | 32/32 μg/ml | – | – | 32/32 μg/ml | > 125 µg/mL | – | – | 16 µg/mL | – | – | 125 µg/mL | – | – | 64 µg/mL | – | 64 µg/mL | 64 µg/mL | 64 µg/mL | 64 µg/mL | 32 µg/mL | MIC (MRSA 43484; MRSA): > 125 µg/mL; MIC (MRSA ATCC 33591-lux; MRSA ATCC 33591-lux): > 125 µg/mL; MIC, single antimicrobial ([1]; All three strains): >125 µg/mL; MIC ([1]; All three strains, read-out: MIC, single antimicrobial): > 125 µg/mL; MIC (S. aureus LMG3242; Staphylococcus aureus, LMG3242, 24 h, read-out: MIC, single component): > 125 µg/mL; MIC (S. aureus LMG3255; Staphylococcus aureus, LMG3255, 24 h, read-out: MIC, single component): > 125 µg/mL; MIC (S. aureus LMG3263; Staphylococcus aureus, LMG3263, 24 h, read-out: MIC, single component): > 125 µg/mL; MIC (S. aureus LMG3264; Staphylococcus aureus, LMG3264, 24 h, read-out: MIC, single component): > 125 µg/mL; MIC (S. aureus LMG3266; Staphylococcus aureus, LMG3266, 24 h, read-out: MIC, single component): > 125 µg/mL; MIC ([2]; MRSP45, 24 h): > 1250 µg/mL
3 | CO[C@H]1/C=C/O[C@@]2(C)Oc3c(C)c(O)c4c(O)c(c(/C=N/N5CCN(C)CC5)c(O)c4c3C2=O)NC(=O)/C(C)=C\C=C\[C@H](C)[C@H](O)[C@@H](C)[C@@H](O)[C@@H](C)[C@H](OC(C)=O)[C@@H]1C [Rifampicin] | – | – | – | – | – | – | – | – | – | – | – | – | – | – | – | – | – | – | – | – | MIC of MP1 in comb. with the labelled antimicrobial (MRSA ATCC 33591): 0.08 µg/mL; MIC of the labelled antimicrobial in comb. with MP1 (MRSA ATCC 33591): 1.5 µg/mL; MIC (MRSA ATCC 33591): > 100 µg/mL; duration of the antimicrobial effect [3]: less than 48 hours
4 | [H]/N=C(/N)N[C@H]1[C@H](O)[C@@H](O)[C@H](O[C@@H]2O[C@@H](C)[C@](O)(C=O)[C@H]2O[C@@H]2O[C@@H](CO)[C@H](O)[C@@H](O)[C@@H]2NC)[C@@H](N/C(N)=N\[H])[C@@H]1O [Str, Streptomycin] | 32 µg/mL | 62 µg/mL | 32 µg/mL | 32 µg/mL | – | 32 µg/mL | moderate synergy with GarKS only against two MRSA out of three | 31 µg/mL | 250 µg/mL | 125 µg/mL | 62 µg/mL | 31 µg/mL | > 250 µg/mL | 31 µg/mL | > 125 µg/mL | 125 µg/mL | 62 µg/mL | 62 µg/mL | 62 µg/mL | 62 µg/mL | MIC, single antimicrobial (MRSA ATCC 33591-lux; MRSA ATCC 33591-lux): >2500 µg/mL; MIC (MRSA ATCC 33591-lux; MRSA ATCC 33591-lux): > 2500 µg/mL; MIC (MRSA USA-300; MRSA USA-300): 62 µg/mL; MIC ([2]; MRSP45, MRSP 45, 24 h, Table 8): > 2500 µg/mL
5 | MKFKFNPTGTIVKKLTQYEIAWFKNKHGYYPWEIPRC [EntK1] | – | – | – | – | – | – | – | – | – | – | – | – | – | – | – | – | – | – | – | – | MIC of MP1 in comb. with the labelled antimicrobial (E. faecium LMGT 3104): 0.02 µg/mL; MIC of the labelled antimicrobial in comb. with MP1 (E. faecium LMGT 3104): 0.4 µg/mL; MIC, single antimicrobial (E. faecium LMGT 3104): >250 µg/mL
